“Also recorded” adds a separate entry of the source.
Tests used:
[1] = molecular target: β-secretase against APP (APP-EQ-FLAG) (Homo sapiens, UniProt P05067); experiment: β-Secretase activity inhibition experiment in vitro, APP-EQ-FLAG substrate; type: biochemical; conditions: polypeptide 50 μM, 4 hours, 37° C., Western blotting
Method: A solution containing the polypeptide having APP (APP-EQ-FLAG: SEQ ID NO: 18) as shown in FIG. 5(A) was prepared in such a manner that its final concentration was 50 nM.
To this solution, 9-7 polypeptide, 6-5 polypeptide, #1 polypeptide, #2 polypeptide, #3 polypeptide, #4 polypeptide, #5 polypeptide, #6 polypeptide, #7 polypeptide, #8 polypeptide, #9 polypeptide, and #10 polypeptide were added in such a manner that each solution had the final concentration of 50 μM, followed by reacting with 50 μL β-secretase (0.02 U/μL) for 4 hours. The reaction temperature was 37° C. As a negative control experiment, DMSO was used in place of the 12 types of polypeptides mentioned above.
After completion of the reaction, each sample was subjected to Western blotting using a monoclonal antibody (82E-1) that specifically recognizes the N terminal of APP-EQ-FLAG as shown in FIG. 5(A). Thereafter, the amount of Aβ33-FLAG protein separated by β-secretase was measured.
An experiment was conducted in the same manner as Experimental Example 4 described above except that S4 and #4 polypeptides were used as the polypeptide and the amounts of these polypeptides added were adjusted so that the final concentrations were 1, 5, 10, 20, 50, and 100 μM.

[2] = system: CHO-K1 cells (7WD10 cells) that stably expressed APP protein; experiment: Aβ protein production inhibition experiment in 7WD10 cells (sAPPβ, βCTF, Aβ); type: cell-based
Method: (§1) An experiment was conducted wherein #1, #2, and #4 polypeptides were reacted with CHO-K1 cells (7WD10 cells) that stably expressed APP protein and transiently expressed Notch to confirm the production of Aβ protein and cleavage of Notch protein.

[3] = system: Notch transiently expressed in CHO-K1 cells (7WD10 cells); experiment: Cleavage of Notch protein (NICD) in 7WD10 cells; type: cell-based; conditions: for abundance of the NICD in the cell lysate: polypeptide 1, 5, 10, 20, and 50 μM; for NICD in the cell lysate: polypeptide 25 or 50 μM
Method: as §1

[4] = molecular target: γ-secretase against βCTF (C99-FLAG) (Homo sapiens, UniProt P05067); experiment: γ-Secretase activity inhibition experiment in vitro, C99-FLAG substrate; type: biochemical; conditions: for cleavage activity of γ-secretase against βCTF (Aβ40 from C99-FLAG): polypeptide 50 μM, 4 hours, 37° C., Western blotting
γ-secretase against βCTF (C99-FLAG), sequence (P05067 with tags, fused parts or gaps): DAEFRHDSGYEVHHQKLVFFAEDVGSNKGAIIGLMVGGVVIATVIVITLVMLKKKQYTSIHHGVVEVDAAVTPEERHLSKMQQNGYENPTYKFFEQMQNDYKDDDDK
Method: (§2) A polypeptide having βCTF (C99-FLAG: SEQ ID NO: 16) and mouse-derived Notch protein having a FLAG peptide at the C-terminal side (modification of NCBI Accession No. Q01705.2; SEQ ID NO: 17; hereunder referred to as “Notch”) shown in FIG. 2(A) were each made into a solution having a final concentration of 50 nM.
(§3) To these solutions, 9-7 polypeptide, 6-5 polypeptide, #1 polypeptide, #2 polypeptide, #3 polypeptide, and #4 polypeptide were added in such a manner that the final concentrations were 50 μM, followed by reacting with 50 μL of CHAPSO-solubilized membrane fraction (γ-secretase-containing fraction) for 4 hours. The reaction temperature was 37° C. As a negative control experiment, DMSO was used in place of the six types of polypeptides described above.
(§4) Each sample after completion of the reaction was measured in the following manner. As shown in FIG. 2(A), a sample using C99-FLAG was subjected to Western blotting using a monoclonal antibody (82E-1) that specifically recognizes the N terminal of C99-FLAG, and the amount of Aβ40 protein produced by the cleavarage by γ-secretase was measured. In contrast, the reaction sample using Notch-FLAG was subjected to Western blotting using an anti-FLAG monoclonal antibody, and the amount of NICD produced to the separete by γ-secretase was also measured. FIG. 2(B) and FIG. 2(C) show the results.
(§5) An experiment was conducted in the same manner as in Experimental Example 1 described above, except that only #1 polypeptide was used and the amount of #1 polypeptide was selected so that the final concentrations were 0.5, 1, 5, 10, 20, and 50 μM.
(§6) An experiment was conducted in the same manner as in Experimental Example 1 described above, except that S4 polypeptide was used as the polypeptide, and each addition amount was set in such a manner that the final concentrations were 1, 5, 10, 20, and 50 μM. In this Experimental Example, #4 polypeptide was added in such a manner that the final result was 50 μM.

CHO-K1 cells = experiment: Mouse Aβ production inhibition experiment, CHO-K1 cells; type: cell-based; conditions: polypeptide 20 μM, CHO-K1 cells expressing mouse-type APP, anti-mouse Aβ antibody Western blotting
Method: (§7) #1, #2, and #4 polypeptides were added to the culture solutions of CHO-K1 cells and Neuro 2A cells (N2A) in such a manner that the final concentration was 20 μM. As a control, L685458 (i.e., a γ-secretase inhibitor) and DMSO were added thereto in such a manner that the final concentration was 20 μM.
(§8) Thereafter, Aβ contained in the cell culture medium was identified by using a Western-blotting method with an antibody (anti-mouse Aβ antibody) that recognizes Aβ. […] In the figure, L indicates L685458, which is a γ-secretase inhibitor (final concentration of 1 μM).

Neuro 2A cells (N2A) = experiment: Mouse Aβ production inhibition experiment, Neuro 2A cells; type: cell-based; conditions: polypeptide 20 μM, Neuro2A cells expressing mouse-type APP, anti-mouse Aβ antibody Western blotting
Method: as §7, §8

[5] = reported in NPL 1; cited from earlier work
[6] = molecular target: γ-secretase against Notch (Mus musculus, UniProt Q01705, V1997L); experiment: γ-Secretase activity inhibition experiment in vitro, Notch-FLAG substrate; type: biochemical
γ-secretase against Notch, sequence (Q01705 with tags, fused parts or gaps V1997L): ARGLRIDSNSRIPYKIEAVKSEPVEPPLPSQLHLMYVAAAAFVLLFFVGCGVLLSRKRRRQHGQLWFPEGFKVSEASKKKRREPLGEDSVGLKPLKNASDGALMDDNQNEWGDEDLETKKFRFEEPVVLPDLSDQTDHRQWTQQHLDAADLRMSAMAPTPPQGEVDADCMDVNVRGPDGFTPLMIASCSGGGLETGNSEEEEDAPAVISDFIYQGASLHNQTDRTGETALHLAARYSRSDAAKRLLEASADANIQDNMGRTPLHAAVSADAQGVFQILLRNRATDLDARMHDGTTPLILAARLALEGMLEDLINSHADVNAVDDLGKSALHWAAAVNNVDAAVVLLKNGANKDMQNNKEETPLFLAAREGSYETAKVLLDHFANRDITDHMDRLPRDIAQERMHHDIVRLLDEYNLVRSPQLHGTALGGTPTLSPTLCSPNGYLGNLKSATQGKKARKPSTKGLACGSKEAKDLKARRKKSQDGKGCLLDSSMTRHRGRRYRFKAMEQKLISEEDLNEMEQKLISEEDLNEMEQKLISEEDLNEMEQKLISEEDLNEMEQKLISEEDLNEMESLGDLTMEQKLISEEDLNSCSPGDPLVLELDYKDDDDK
Method: as §2, §3, §4, §5, §6

[7] = polypeptide 1, 5, 10, 20, and 50 μM
[8] = polypeptide 0.5, 1, 5, 10, 20, and 50 μM

β-secretase against APP (APP-EQ-FLAG), sequence (P05067 with tags, fused parts or gaps): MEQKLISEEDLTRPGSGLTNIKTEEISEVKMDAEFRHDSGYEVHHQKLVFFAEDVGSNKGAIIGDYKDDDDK

MVPVVCDCYCFLSVCFCYSCYIT (Ac-MVPVVCDCYCFLSVCFCYSCYIT-NH2; cysteine pairing not given here) [#5]
cleavage activity of β-secretase against APP (Aβ33-FLAG) [1]: inhibit the cleavage activity of β-secretase against APP more intensely

MPLSICDCYCISTICYCYFCVHR (Ac-MPLSICDCYCISTICYCYFCVHR-NH2; cysteine pairing not given here) [#9]
cleavage activity of β-secretase against APP (Aβ33-FLAG) [1]: inhibit the cleavage activity of β-secretase against APP more intensely

CC(C)C[C@H](NC(=O)[C@H](Cc1ccccc1)C[C@@H](O)[C@H](Cc1ccccc1)NC(=O)OC(C)(C)C)C(=O)N[C@@H](Cc1ccccc1)C(N)=O [L685458, reference compound]
Aβ protein in the cell culture medium (released Aβ) ([2]; L685458 1 μM): decreased | Aβ protein in the cell lysate (intracellular Aβ) ([2]; L685458 1 μM): decrease in βCTF (C99) and Aβ protein was also observed | sAPP in the cell lysate ([2]; L685458 1 μM): such a phenomenon was not observed | βCTF (C99) in the cell lysate ([2]; L685458 1 μM): decrease in βCTF (C99) and Aβ protein was also observed | amount of NICD in the cell lysate ([3]; L685458 1 μM): the amount of NICD was decreased

MDTVICDCYCDNYVCFCYSCSHV (Ac-MDTVICDCYCDNYVCFCYSCSHV-NH2; cysteine pairing not given here) [#2]
cleavage activity of γ-secretase against βCTF (Aβ40 from C99-FLAG) [4]: inhibited more cleavage activity of γ-secretase against βCTF | cleavage activity of β-secretase against APP (Aβ33-FLAG) [1]: inhibit the cleavage activity of β-secretase against APP more intensely | Aβ protein in the cell culture medium (released Aβ) [2, 7]: decreased depending on the concentration | Aβ protein in the cell lysate (intracellular Aβ) [2, 7]: no longer present in a manner dependent on the final concentration | sAPP in the cell lysate [2, 7]: no longer present in a manner dependent on the final concentration | βCTF (C99) in the cell lysate [2, 7]: no longer present in a manner dependent on the final concentration | abundance of the NICD in the cell lysate [3]: not decreased | production of Aβ in the culture medium (CHO-K1 cells): the production of Aβ in the culture medium was reduced | production of Aβ in the culture medium (Neuro 2A cells (N2A)): the production of Aβ in the culture medium was reduced

C[C@H](NC(=O)[C@@H](O)c1cc(F)cc(F)c1)C(=O)N[C@@H]1C(=O)N(C)c2ccccc2-c2ccccc21 [LY-411,575]
effect on the thymus [5]: induces atrophy of the thymus | number of mature B cells in the spleen [5]: reduces the number of mature B cells in the spleen

MSIRVCDCYCHGDLCFCYSCINS (Ac-MSIRVCDCYCHGDLCFCYSCINS-NH2; cysteine pairing not given here) [#1]
cleavage activity of γ-secretase against βCTF (Aβ40 from C99-FLAG) [4]: inhibited more cleavage activity of γ-secretase against βCTF; also recorded: inhibited the cleavage activity of γ-secretase against Aβ protein | cleavage activity of γ-secretase against βCTF [4, 8]: more intensively inhibits the cleavage activity of γ-secretase against βCTF in a concentration-dependent manner; also recorded: inhibited the cleavage activity of γ-secretase against βCTF in a concentration-dependent manner | cleavage activity of γ-secretase against Notch (NICD) ([6]; polypeptide 50 μM, 4 hours, 37° C., Western blotting): did not inhibit the cleavage activity against Notch | cleavage activity of γ-secretase against Notch (NICD) [6, 8]: did not inhibit the cleavage activity of γ-secretase against Notch | cleavage activity of β-secretase against APP (Aβ33-FLAG) [1]: inhibit the cleavage activity of β-secretase against APP more intensely | Aβ protein in the cell culture medium (released Aβ) [2, 7]: decreased depending on the concentration | Aβ protein in the cell lysate (intracellular Aβ) [2, 7]: no longer present in a manner dependent on the final concentration | sAPP in the cell lysate [2, 7]: no longer present in a manner dependent on the final concentration | βCTF (C99) in the cell lysate [2, 7]: no longer present in a manner dependent on the final concentration | abundance of the NICD in the cell lysate [3]: not decreased | production of Aβ in the culture medium (CHO-K1 cells): the production of Aβ in the culture medium was reduced | production of Aβ in the culture medium (Neuro 2A cells (N2A)): the production of Aβ in the culture medium was reduced

FRBGWVYTYTV (FRXGWVYTYTV; HELM PEPTIDE1{[ac].F.R.[O=C([C@H](Cc1ccc(-c2ccccc2)cc1)N[*:1])[*:2]].G.W.V.Y.T.Y.T.V.[am]}$$$$V2.0; SMILES CC(=O)N[C@@H](Cc1ccccc1)C(=O)N[C@@H](CCCNC(=N)N)C(=O)N[C@@H](Cc1ccc(-c2ccccc2)cc1)C(=O)NCC(=O)N[C@@H](Cc1c[nH]c2ccccc12)C(=O)N[C@H](C(=O)N[C@@H](Cc1ccc(O)cc1)C(=O)N[C@H](C(=O)N[C@@H](Cc1ccc(O)cc1)C(=O)N[C@H](C(=O)N[C@H](C(N)=O)C(C)C)[C@@H](C)O)[C@@H](C)O)C(C)C) [S2, B is L-4,4′-biphenylalanine (Bph) residue]
Aβ protein in the cell culture medium ([2]; polypeptide final concentration of 50 μM): exhibited the Aβ protein production inhibition effect almost to the same level as #4 polypeptide and S4 polypeptide | NICD in the cell lysate [3]: did not have any influence on NICD

MGRVNCDCYCIGHYCYCYYCHNI (Ac-MGRVNCDCYCIGHYCYCYYCHNI-NH2; cysteine pairing not given here) [#8]
cleavage activity of β-secretase against APP (Aβ33-FLAG) [1]: inhibit the cleavage activity of β-secretase against APP more intensely

MPTVYCDCYCAYNACYCYYCRSD (Ac-MPTVYCDCYCAYNACYCYYCRSD-NH2; cysteine pairing not given here) [#10]
cleavage activity of β-secretase against APP (Aβ33-FLAG) [1]: inhibit the cleavage activity of β-secretase against APP more intensely

MGLISCDCYCDSTACFCYSCTDF (Ac-MGLISCDCYCDSTACFCYSCTDF-NH2; cysteine pairing not given here) [#3]
cleavage activity of β-secretase against APP (Aβ33-FLAG) [1]: inhibit the cleavage activity of β-secretase against APP more intensely

MLICDCYCDPRSCICGSCTLV (Ac-MLICDCYCDPRSCICGSCTLV-NH2; cysteine pairing not given here) [L13]
Aβ protein in the cell culture medium ([2]; polypeptide 25 or 50 μM): did not inhibit the production of Aβ | NICD in the cell lysate [3]: did not have any affect on NICD

MLYTSCDCYCDAFSCFCYSCGPY (Ac-MLYTSCDCYCDAFSCFCYSCGPY-NH2; cysteine pairing not given here) [#6]
cleavage activity of β-secretase against APP (Aβ33-FLAG) [1]: inhibit the cleavage activity of β-secretase against APP more intensely
